For orientation: IC50 means the point on the concentration scale where inhibition reaches its midpoint. Read a high IC50 as a need for much substance.

From patent US10787425B2, “Thiazolidinedione derivative and use thereof” (INDUSTRY-ACADEMIC COOPERATION FOUNDATION CHOSUN UNIVERSITY, priority 2016, dated 2020) come the findings set out here.

Experiment [1] concerns the target 15-PGDH (Homo sapiens (Human), UniProt P15428). Kind of experiment: 15-PGDH inhibitory activity (NADH at 340 nm). Type of experiment: biochemical. As to conditions: concentration inhibiting 50% of 15-PGDH activity; purified 15-PGDH, 21 μM PGE2, 0.25 mM NAD+. On the procedure: The 15-PGDH cDNA plasmid containing the BamHI of the pGEX-2T expression vector and EcoRI restriction enzyme sites was transfected into E. coli BL-21 LysS by using conventional methods used in the art. Then, the transfected cells were cultured in an LB medium (500 ml) containing 50 μg/ml of ampicillin at a temperature of 37° C. and at a rate of 220 rpm until the OD600 reached 0.6. Then, isopropyl beta-D-thiogalactoxide (1 mM) was added and the cells were further cultured at the temperature of 25° C. for 12 hours. The cells were then centrifuged at the gravity of 4,000 g for 30 minutes at a temperature of 4° C. to collect a cell pellet. The cell pellet was dissolved in 20 ml of cell lysis buffer (containing 1×PBS buffer (pH 7.4): 1 mM EDTA and 0.1 mM DTT) and sonicated at a temperature of 4° C. for 14×10 s. The digested cells were centrifuged at the gravity of 4,000 g for 20 minutes at a temperature of 4° C. The supernatant was then slowly loaded onto a glutathione-sepharose 4B column equilibrated at a temperature of 4° C. with cell lysis buffer [containing 1×PBS buffer (pH 7.4), 1 mM EDTA, and 0.1 mM DTT]. Washing was performed thereon by using a dissolution buffer until the OD280 reached 0.005 or less. Then, 15-PGDH was eluted from the glutathione-sepharose 4B column at room temperature for 5 minutes by using an elution buffer [containing 50 mM Tris-HCl (pH 8.0), 10 mM reduced glutathione, 1 mM EDTA, and 0.1 mM DTT). The concentration of the purified enzyme was measured, and the purification level thereof was confirmed by SDS-PAGE.
That is, the cells were treated with a solution including 50 mM Tris-HCl (pH 7.5), 0.1 mM DTT, 0.25 mM (NAD+), 10 μg of purified 15-PGDH enzyme, 21 μM PGE2. and various concentrations (0.0001 μM to 64 μM) of the derivative compound according to the present disclosure. In this case, the total volume of the solution was 2 ml. Then, the absorbance of the reaction mixture was recorded at the wavelength of 340 nm. To measure the activity of the derivative compounds according to the present disclosure, which is an inhibitor of 15-PGDH, the average value of NADH absorbance at 340 nm at various concentrations was obtained from a standard curve.

Experiment [2] concerns A549 cells. Kind of experiment: Measurement of PGE2 concentration in A549 cell medium (ELISA). Type of experiment: cell-based, human. As to conditions: for Increment %: PGE2 concentration versus PBS control, 5 μM, 12 hours; for PGE2 concentration: inhibitor 5 μM, medium collected after 12 hours, ELISA. On the procedure: A549 cells were subcultured in RPMI 1640 medium (containing+8% fetal bovine serum (FBS) and antibiotic-antimycotic (AA)) for one week, and then, inoculated in a 6-well plate at 2.5×10^5 cells/mL (5×10^5 cells/well) and cultured for 24 hours in a 5% CO2 incubator at a temperature of 37° C. A549 cells are adenocarcinomic human alveolar basal epithelial cells which are derived from lung tissues. When cells were grown to about 80% confluence, a 15-PGDH inhibitor in 1×PBS buffer was injected at a concentration of 5 μM. To compare the results, the same amount of 1×PBS buffer was injected into a negative control, and, the treated cells were cultured in 5% CO2 incubator. After 12 hours, the medium was collected and the collected medium was assayed to measure PGE2 concentration by using an ELISA Kit (Abcam) according to the manufacturer's instructions. The concentration may be expressed as an exact value by plotting the calibration curve by using the absorbance value after diluting the standard in the medium by concentration.
Background: An ELISA detects its analyte on a solid surface through an enzyme-linked reagent.

Chain of 15-PGDH (P15428 whole entry): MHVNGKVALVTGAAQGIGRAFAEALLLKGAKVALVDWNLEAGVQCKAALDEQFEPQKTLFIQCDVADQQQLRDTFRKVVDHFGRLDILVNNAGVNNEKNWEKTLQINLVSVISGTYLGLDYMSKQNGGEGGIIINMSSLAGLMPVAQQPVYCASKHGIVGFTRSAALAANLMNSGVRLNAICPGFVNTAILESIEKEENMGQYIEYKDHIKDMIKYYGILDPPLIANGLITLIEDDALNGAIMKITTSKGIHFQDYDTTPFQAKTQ

`COc1cc(/C=C2\SC(=O)NC2=O)ccc1OC(=O)CCCC1CCCCC1` [Compound 39, (Z)-4-((2,4-dioxothiazolidin-5-ylidene)methyl)-2-methoxyphenyl 4-cyclohexylbutanoate] returned an IC50 in experiment [1] of 17.5 nM. In addition, in experiment [2], the Increment % is listed as 220.24% and the PGE2 concentration turned out to be 649.318 pg/mL.

As for `COc1cc(/C=C2\SC(=O)NC2=O)ccc1OC(=O)CCCCC1CCCCC1` [Compound 40, (Z)-4-((2,4-dioxothiazolidin-5-ylidene)methyl)-2-methoxyphenyl 5-cyclohexylpentanoate], in experiment [1], half-maximal inhibition (IC50) was put at 28.2 nM. In addition, in experiment [2], the Increment % was 7.88% and the PGE2 concentration worked out at 218.7373 pg/mL.

Turning to `COc1cc(/C=C2\SC(=O)NC2=O)ccc1OC(=O)c1ccccc1.O=C(O)c1ccccc1` [Compound 41, (Z)-4-((2,4-dioxothiazolidin-5-ylidene)methyl)-2-methoxyphenyl benzoate], in experiment [1], it took 151 nM to reach half-maximal inhibition (IC50). In experiment [2], the Increment % is listed as −88.34% and the PGE2 concentration was found to be 23.64 pg/mL.

`COc1cc(/C=C2\SC(=O)NC2=O)ccc1OC(=O)Cc1ccccc1` [Compound 42, (Z)-4-((2,4-dioxothiazolidin-5-ylidene)methyl)-2-methoxyphenyl 2-phenylacetate] came in with an IC50 in experiment [1] of 42.2 nM. Moreover, in experiment [2], the Increment % is 97.64% and the PGE2 concentration turned out to be 400.7345 pg/mL.

`COc1cc(/C=C2\SC(=O)NC2=O)ccc1OC(=O)CCc1ccccc1` [Compound 43, (Z)-4-((2,4-dioxothiazolidin-5-ylidene)methyl)-2-methoxyphenyl 3-phenylpropanoate] came in with an IC50 in experiment [1] of 28.6 nM. In addition, in experiment [2], the Increment % stood at 113.27% and the PGE2 concentration is 432.4258 pg/mL.

In experiment [1], `COc1cc(/C=C2\SC(=O)NC2=O)ccc1OC(=O)CCCc1ccccc1` [Compound 44, (Z)-4-((2,4-dioxothiazolidin-5-ylidene)methyl)-2-methoxyphenyl 4-phenylbutanoate] came in with an IC50 of 23.9 nM. In experiment [2], the Increment % is 299.80% and the PGE2 concentration turned out to be 810.6337 pg/mL.

Consider `COc1cc(/C=C2\SC(=O)NC2=O)ccc1OC(=O)CCCCc1ccccc1` [Compound 45, (Z)-4-((2,4-dioxothiazolidin-5-ylidene)methyl)-2-methoxyphenyl 5-phenylpentanoate], for which it took 38.9 nM to reach half-maximal inhibition in experiment [1] (IC50). In experiment [2], the Increment % is on record as 78.78% and the PGE2 concentration turned out to be 362.494 pg/mL.

On to `CCOc1cc(/C=C2\SC(=O)NC2=O)ccc1OC(=O)C1CC1` [Compound 46, (Z)-4-((2,4-dioxothiazolidin-5-ylidene)methyl)-2-ethoxyphenyl cyclopropanecarboxylate], for which, in experiment [1], the 50% inhibitory concentration (IC50) is 2170 nM. In experiment [2], the Increment % was 1.78% and the PGE2 concentration was 278.8555 pg/mL.

In experiment [1], `CCOc1cc(/C=C2\SC(=O)NC2=O)ccc1OC(=O)C1CCC1` [Compound 47, (Z)-4-((2,4-dioxothiazolidin-5-ylidene)methyl)-2-ethoxyphenyl cyclobutanecarboxylate] came in with a 50% inhibitory concentration (IC50) of 1620 nM. In addition, in experiment [2], the Increment % was −32.43% and the PGE2 concentration was determined as 185.1274 pg/mL.

For the compound `CCOc1cc(/C=C2\SC(=O)NC2=O)ccc1OC(=O)C1CCCC1` [Compound 48, (Z)-4-((2,4-dioxothiazolidin-5-ylidene)methyl)-2-ethoxyphenyl cyclopentanecarboxylate], the IC50 in experiment [1] turned out to be 1400 nM. Further, in experiment [2], the Increment % is −22.79% and the PGE2 concentration was 211.539 pg/mL.

`CCOc1cc(/C=C2\SC(=O)NC2=O)ccc1OC(=O)CC1CCCC1` [Compound 49, (Z)-4-((2,4-dioxothiazolidin-5-ylidene)methyl)-2-ethoxyphenyl 2-cyclopentylacetate] had a half-maximal inhibitory concentration (IC50) in experiment [1] of 128 nM. In experiment [2], the Increment % is listed as 9.34% and the PGE2 concentration amounted to 299.5683 pg/mL.

The compound `CCOc1cc(/C=C2\SC(=O)NC2=O)ccc1OC(=O)CCC1CCCC1` [Compound 50, (Z)-4-((2,4-dioxothiazolidin-5-ylidene)methyl)-2-ethoxyphenyl 3-cyclopentylpropanoate] displayed an IC50 in experiment [1] of 29 nM. Further, in experiment [2], the Increment % is reported as 89.67% and the PGE2 concentration amounted to 519.6554 pg/mL.

Turning to `CCOc1cc(/C=C2\SC(=O)NC2=O)ccc1OC(=O)C1CCCCC1` [Compound 51, (Z)-4-((2,4-dioxothiazolidin-5-ylidene)methyl)-2-ethoxyphenyl cyclohexanecarboxylate], the IC50 in experiment [1] stood at 549 nM. In addition, in experiment [2], the Increment % came to 3.34% and the PGE2 concentration was found to be 283.1296 pg/mL.

With `CCOc1cc(/C=C2\SC(=O)NC2=O)ccc1OC(=O)CC1CCCCC1` [Compound 52, (Z)-4-((2,4-dioxothiazolidin-5-ylidene)methyl)-2-ethoxyphenyl 2-cyclohexylacetate], in experiment [1], the IC50 was 32.8 nM. In addition, in experiment [2], the Increment % is reported as −18.49% and the PGE2 concentration was determined as 223.32 pg/mL.

Turning to `CCOc1cc(/C=C2\SC(=O)NC2=O)ccc1OC(=O)CCCC1CCCCC1` [Compound 54, (Z)-4-((2,4-dioxothiazolidin-5-ylidene)methyl)-2-ethoxyphenyl 4-cyclohexylbutanoate], the midpoint of inhibition in experiment [1], the IC50, lay at 23.8 nM. Moreover, in experiment [2], the Increment % is 202.57% and the PGE2 concentration is 828.9774 pg/mL.

In turn, `CCOc1cc(/C=C2\SC(=O)NC2=O)ccc1OC(=O)CCCCC1CCCCC1` [Compound 55, (Z)-4-((2,4-dioxothiazolidin-5-ylidene)methyl)-2-ethoxyphenyl 5-cyclohexylpentanoate] returned an IC50 in experiment [1] of 34.4 nM. In experiment [2], the Increment % is on record as 7.8% and the PGE2 concentration was 295.349 pg/mL.

`CCOc1cc(/C=C2\SC(=O)NC2=O)ccc1OC(=O)c1ccccc1.O=C(O)c1ccccc1` [Compound 56, (Z)-4-((2,4-dioxothiazolidin-5-ylidene)methyl)-2-ethoxyphenyl benzoate] registered a 50% inhibitory concentration (IC50) in experiment [1] of 298 nM. In experiment [2], the Increment % is given as −31.65% and the PGE2 concentration was found to be 108.7675 pg/mL.

With `CCOc1cc(/C=C2\SC(=O)NC2=O)ccc1OC(=O)Cc1ccccc1` [Compound 57, (Z)-4-((2,4-dioxothiazolidin-5-ylidene)methyl)-2-ethoxyphenyl 2-phenylacetate], the IC50 in experiment [1] was 118 nM. For the same compound, in experiment [2], the Increment % is recorded as −17.46% and the PGE2 concentration worked out at 131.3485 pg/mL.

For the compound `CCOc1cc(/C=C2\SC(=O)NC2=O)ccc1OC(=O)CCc1ccccc1` [Compound 58, (Z)-4-((2,4-dioxothiazolidin-5-ylidene)methyl)-2-ethoxyphenyl 3-phenylpropanoate], in experiment [1], half-maximal inhibition (IC50) was put at 94.3 nM. Also, in experiment [2], the Increment % came to 7.97% and the PGE2 concentration turned out to be 171.8161 pg/mL.

In turn, `CCOc1cc(/C=C2\SC(=O)NC2=O)ccc1OC(=O)CCCCc1ccccc1` [Compound 60, (Z)-4-((2,4-dioxothiazolidin-5-ylidene)methyl)-2-ethoxyphenyl 5-phenylpentanoate] gave an IC50 in experiment [1] of 58.4 nM. Besides, in experiment [2], the Increment % turned out to be 88.87% and the PGE2 concentration came to 300.5549 pg/mL.

Consider `O=C1NC(=O)/C(=C/c2ccc(OC(=O)C3CC3)cc2)S1` [Compound 61, (Z)-4-((2,4-dioxothiazolidin-5-ylidene)methyl)phenyl cyclopropanecarboxylate], for which half-maximal inhibition in experiment [1] (IC50) required 1410 nM. In addition, in experiment [2], the Increment % is on record as −99.97% and the PGE2 concentration was found to be 0.04774 pg/mL.

In experiment [1], `O=C1NC(=O)/C(=C/c2ccc(OC(=O)C3CCCC3)cc2)S1` [Compound 63, (Z)-4-((2,4-dioxothiazolidin-5-ylidene)methyl)phenyl cyclopentanecarboxylate] displayed a half-maximal inhibitory concentration (IC50) of 179 nM. In experiment [2], the Increment % is given as 49.33% and the PGE2 concentration is 237.6336 pg/mL.
